Test results: patent US20210277003A1, “OGA INHIBITOR COMPOUNDS” (Janssen Pharmaceutica NV, priority 2018, published 2021)

Columns and labels:
[1] = target: T1, recombinant human Meningioma Expressed Antigen 5 (MGEA5), also referred to as O-GlcNAcase (OGA) (Homo sapiens, UniProt O60502); experiment: OGA biochemical assay: inhibition of hydrolysis of fluorescein mono-ß-D-N-Acetyl-Glucosamine (FM-GlcNAc), fluorescence readout; conditions: FM-GlcNAc substrate; for Emax: read-out: Enzymatic Emax (%); for IC50: read-out: Enzymatic hOGA, pIC50 (converted)
T1 construct: Full length OGA enzyme was purchased at OnGene (cat #TP322411); purchased OnGene (so in the source)
T1 sequence (O60502 1-916): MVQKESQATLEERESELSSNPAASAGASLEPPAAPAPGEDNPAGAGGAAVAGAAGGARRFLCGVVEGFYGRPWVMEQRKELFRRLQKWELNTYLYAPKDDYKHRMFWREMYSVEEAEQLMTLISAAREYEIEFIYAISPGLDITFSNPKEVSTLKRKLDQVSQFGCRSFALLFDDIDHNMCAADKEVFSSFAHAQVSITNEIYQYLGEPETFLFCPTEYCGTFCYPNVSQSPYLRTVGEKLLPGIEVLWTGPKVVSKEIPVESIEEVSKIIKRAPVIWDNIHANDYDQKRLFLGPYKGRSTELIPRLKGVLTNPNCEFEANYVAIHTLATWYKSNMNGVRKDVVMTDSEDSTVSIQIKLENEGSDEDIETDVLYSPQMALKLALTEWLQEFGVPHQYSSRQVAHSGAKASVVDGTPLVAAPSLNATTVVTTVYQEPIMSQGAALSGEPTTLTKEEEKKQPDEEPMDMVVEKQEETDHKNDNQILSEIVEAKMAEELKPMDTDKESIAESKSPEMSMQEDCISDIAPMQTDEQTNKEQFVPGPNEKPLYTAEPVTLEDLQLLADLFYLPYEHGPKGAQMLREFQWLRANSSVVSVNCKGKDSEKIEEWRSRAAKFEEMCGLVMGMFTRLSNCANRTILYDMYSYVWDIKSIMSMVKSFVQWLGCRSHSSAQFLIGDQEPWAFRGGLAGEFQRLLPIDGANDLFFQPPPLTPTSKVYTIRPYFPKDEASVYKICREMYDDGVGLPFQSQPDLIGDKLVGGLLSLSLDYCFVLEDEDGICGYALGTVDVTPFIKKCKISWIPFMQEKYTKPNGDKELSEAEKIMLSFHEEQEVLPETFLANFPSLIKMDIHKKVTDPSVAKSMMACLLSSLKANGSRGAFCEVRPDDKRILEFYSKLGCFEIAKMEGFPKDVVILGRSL
Summary of the method: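 Full-length recombinant human OGA (2 nM) was pre-incubated with compound for 60 min, then reacted with 100 uM FM-GlcNAc for 6 h at room temperature in 200 mM citrate/phosphate pH 7.2 with 0.005% Tween-20. Reactions were stopped with pH 11.0 carbonate and fluorescein read at 485/538 nm. IC50 and Hill coefficient came from curve fitting.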

[2] = tested on: OGA in HEK293 cells inducible for P301L mutant human Tau (isoform 2N4R); experiment: OGA cellular assay: immunocytochemical detection of O-GlcNAcylated proteins (CTD110.6 antibody); format: cell-based; conditions: 6 hours incubation; for Emax / EC50: Homo sapiens, HEK293, 6 h; for EC50: read-out: Cellular hOGA, pEC50 (converted)
Summary of the method: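 Cells seeded 2 days ahead in low-glucose assay medium and exposed to compounds for 6 h at 0.2% DMSO, then PFA-fixed and immunostained. Signal is 488 nm intensity from imaging (9 fields/well), with Hoechst nuclei counts as a toxicity check. IC50 from non-linear regression, with 200 uM Thiamet G per plate as maximum inhibition.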

Row | Compound | Emax [1] | IC50 [1] | Enzymatic hOGA; pIC50 [1] | Enzymatic Emax (%) [1] | Emax ([2]; maximum = Thiamet G 200 uM) | EC50 [2] | Cellular hOGA; pEC50 [2] | Cellular Emax (%) ([2]; maximum = Thiamet G 200 uM)
1 | CCCCn1c(F)cc2c(Nc3c(C)cncc3C)nccc21 [Compound 31] | 99% | 302 nM | – | – | 27% | > 1000 nM | – | –
2 | Cc1cc(C(F)(F)F)cc(C)c1Nc1nccc2c1ccn2CC(F)(F)C(C)C [Compound 176] | 103% | 1.55 nM | – | – | 101% | 5.5 nM | – | –
3 | Cc1cccc(S(C)(=O)=O)c1Nc1nccc2c1ccn2CC1CC(F)(F)C1 [Compound 174] | 99.3% | 12.9 nM | – | – | 87% | 93.3 nM | – | –
4 | CCCCn1cc(F)c2c(Nc3c(C)cncc3C)nccc21 [Compound 34] | 99% | 178 nM | – | – | 36% | > 1000 nM | – | –
5 | Cc1ccnc(C(F)F)c1Nc1nccc2c1ccn2CC1CC(F)(F)C1 [Compound 115] | 99.6% | – | 7.2 | – | 52.3% | ~891 nM | – | –
6 | CCCCn1ccc2c(Nc3c(C)cc(C(=O)N4CCOCC4)cc3C)nccc21 [Compound 56] | 101% | 2.69 nM | – | – | 107% | 5.13 nM | – | –
7 | CCC(C)Cn1ccc2c(Nc3c(C)ccnc3C)nccc21.Cl (stereo not drawn) [Compound 16] | 101% | – | 7.83 | – | 85% | 32.4 nM | – | –
8 | CCCCn1ccc2c(Nc3c(F)cncc3CC)nccc21 [Compound 44] | 100% | 35.5 nM | – | – | 69% | 302 nM | – | –
9 | CCCCn1ccc2c(Nc3c(C)cccc3C)nccc21 [Compound 72] | 100% | 5.62 nM | – | – | 78% | 53.7 nM | – | –
10 | Cc1ccnc(C)c1Nc1nccc2c1ccn2CC1CCO1 (stereo not drawn) [Compound 25] | 104% | 4.79 nM | – | – | 89% | 38 nM | – | –
11 | CCCCn1ccc2c(Nc3c(C)cc(CF)cc3C)nccc21 [Compound 101] | 103% | 3.24 nM | – | – | 83% | 57.5 nM | – | –
12 | FC1(F)CC(Cn2ccc3c(Nc4c(Cl)cccc4Cl)nccc32)C1 [Compound 91] | 102% | – | 8 | – | 73% | 79.4 nM | – | –
13 | CCCCn1ccc2c(Nc3c(C)cc(C(=O)OC)cc3C)nccc21 [Compound 64] | 102% | 3.98 nM | – | – | 80% | 24.5 nM | – | –
14 | CCCCn1ccc2c(Nc3c(Cl)cnc4c3OCCO4)nccc21 [Compound 18] | 102% | – | 7.46 | – | 62% | 575 nM | – | –
15 | Cc1cc(C(F)(F)F)cc(C)c1Nc1nccc2c1ccn2CC(C)(F)F [Compound 130] | 102% | – | 8.6 | – | 93.7% | 3.16 nM | – | –
16 | Cc1ccnc(C(C)C)c1Nc1nccc2c1ccn2CC1CCCO1 (stereo not drawn) [Compound 138] | 103% | – | 8.07 | – | 66.8% | 74.1 nM | – | –
17 | Cc1cc(F)cc(Cl)c1Nc1nccc2c1ccn2CC(C)(F)F [Compound 151] | 100% | – | 8.61 | – | 102% | 10.2 nM | – | –
18 | Cc1cc2c(c(C)c1Nc1nccc3c1ccn3CC1CC(F)(F)C1)OCCO2 [Compound 175] | 100% | 6.31 nM | – | – | 80.1% | 37.2 nM | – | –
19 | Cc1cncc(C)c1Nc1nccc2c1ccn2CC1CC1(F)F (stereo not drawn) [Compound 1] | 102% | 151 nM | – | – | 56% | 708 nM | – | –
20 | CCCCn1ccc2c(Nc3c(C)cncc3Cl)nccc21 [Compound 5] | 101% | – | 7.95 | – | 67% | 67.6 nM | – | –
21 | Fc1cc(Cl)c(Nc2nccc3c2ccn3CC2CCCO2)c(Cl)c1 (stereo not drawn) [Compound 136] | 101% | – | 7.64 | – | 74.9% | 240 nM | – | –
22 | Cc1ccnc(C)c1Nc1nccc2c1ccn2CC1CC(F)(F)C1 [Compound 92] | 103% | – | 7.38 | – | 75% | 151 nM | – | –

Further lines, with some results ahead:

Row | Emax [1] | IC50 [1] | Enzymatic hOGA; pIC50 [1] | Enzymatic Emax (%) [1] | Compound | Emax ([2]; maximum = Thiamet G 200 uM) | EC50 [2] | Cellular hOGA; pEC50 [2] | Cellular Emax (%) ([2]; maximum = Thiamet G 200 uM)
23 | 101% | 3.09 nM | – | – | Cc1ccnc(C)c1Nc1nccc2c1ccn2CC(F)(F)C(C)C [Compound 202] | 88.1% | 3.63 nM | – | –
24 | 104% | 2.24 nM | – | – | CCC(F)(F)Cn1ccc2c(Nc3c(C)ccnc3C)nccc21 [Compound 27] | 112% | 7.59 nM | – | –
25 | 101% | – | 7.9 | – | FC(F)CCn1ccc2c(Nc3c(Cl)cccc3Cl)nccc21 [Compound 97] | 78% | 347 nM | – | –
26 | 95.3% | 501 nM | – | – | Cc1cnc(-n2ccc3c(Nc4c(Cl)cc(F)cc4Cl)nccc32)o1 [Compound 183] | 13.9% | > 1000 nM | – | –
27 | 102% | 3.39 nM | – | – | Clc1cccc(Cl)c1Nc1nccc2c1ccn2CC1CC1 [Compound 69] | 82% | 55 nM | – | –
28 | – | 4.57 nM | – | 101% | Cc1ccnc(C)c1Nc1nccc2c1ccn2CC1CCO1 (single isomer, unassigned) [Compound 25b] | – | – | 7.63 | 90%
29 | 103% | 1.7 nM | – | – | CCCCn1ccc2c(Nc3c(C)ccc(C(=O)N4CCCC4)c3C)nccc21 [Compound 55] | 104% | 22.4 nM | – | –
30 | 102% | – | 8.11 | – | CCCCn1ccc2c(Nc3c(Cl)ccc4c3CCO4)nccc21 [Compound 8] | 87% | 110 nM | – | –
31 | 100% | 191 nM | – | – | Cc1ccnc(C)c1Nc1nccc2c1ccn2CCC(C)(C)C#N [Compound 26] | 64% | 479 nM | – | –
32 | 101% | – | 8 | – | Cc1cc(F)cc(F)c1Nc1nccc2c1ccn2CC(C)(F)F [Compound 155] | 73.3% | 50.1 nM | – | –
33 | 102% | 1.35 nM | – | – | Cc1cccc(S(C)(=O)=O)c1Nc1nccc2c1ccn2CCC1CC1 [Compound 195] | 95.3% | 25.1 nM | – | –
34 | 100% | – | 8.59 | – | Cc1cc(Cl)cc(C(F)(F)F)c1Nc1nccc2c1ccn2CC(C)(F)F [Compound 129] | 104% | 7.41 nM | – | –
35 | 100% | – | 7.54 | – | Cc1cncc(Cl)c1Nc1nccc2c1ccn2CC1CC1 [Compound 110] | 48% | 363 nM | – | –
36 | 101% | 21.9 nM | – | – | CCCCn1ccc2c(Nc3c(C)cncc3C(F)(F)F)nccc21 [Compound 86] | 71% | 309 nM | – | –
37 | 102% | 4.57 nM | – | – | CCCCn1ccc2c(Nc3c(C)cc(C(=O)NC)cc3C)nccc21 [Compound 57] | 107% | 11 nM | – | –
38 | 100% | 27.5 nM | – | – | Cc1cc(F)cc(C)c1Nc1nccc2c1ccn2CC1CC(F)(F)C1 [Compound 170] | 78.6% | 83.2 nM | – | –
39 | 102% | – | 8.52 | – | Cc1cc(F)c(F)c(C)c1Nc1nccc2c1ccn2CC(C)(F)F [Compound 153] | 74.1% | 20.4 nM | – | –
40 | 100% | 1.05 nM | – | – | Cc1cc2cnn(C)c2c(C)c1Nc1nccc2c1ccn2CC(F)(F)C(C)C [Compound 189] | 101% | 3.16 nM | – | –
41 | 102% | 2.04 nM | – | – | Cc1cc(C)c(Nc2nccc3c2ccn3CC(F)(F)C(C)C)c(OC(F)F)n1 [Compound 179] | 80.9% | 20.4 nM | – | –
42 | 104% | – | 8.58 | – | Cc1cc(C(F)(F)F)cc(C(C)C)c1Nc1nccc2c1ccn2CC1CCO1 (stereo not drawn) [Compound 161] | 88.8% | 6.76 nM | – | –
